Earlier results as cited in patent US5198423A, “Functional polypeptide containing a cell binding domain and a heparin binding domain of fibronectin” (Takara Shuzo Co., Ltd., priority 1989, dated 1993).

System: angiogenesis
Conditions: chick embryo chorions, rabbit corneas, and hamster cheek pouches

SMILES	inhibition of angiogenesis, in words
C[C@@H]1C[C@H]2[C@@H]3CCC4=CC(=O)C=C[C@]4(C)[C@@]3(F)[C@@H](O)C[C@]2(C)[C@@]1(O)C(=O)CO [dexamethasone]	found to inhibit angiogenesis
C[C@]12C=CC(=O)C=C1CC[C@@H]1[C@@H]2[C@@H](O)C[C@@]2(C)[C@H]1CC[C@]2(O)C(=O)CO [prednisolone]	found to inhibit angiogenesis
C[C@H]1C[C@@H]2[C@H]([C@@H](O)C[C@@]3(C)[C@H]2CC[C@]3(O)C(=O)CO)[C@@]2(C)C=CC(=O)C=C12 [6α-methylprednisolone]	found to inhibit angiogenesis
